Tested on: lymphocytes
Assay: Mixed Lymphocyte Reaction (MLR) II (Example B)
Assay type: cell-based
Details: concentration of compound required to inhibit the proliferation of lymphocytes by 50%, cells from two responding donors, 96 hours incubation, ³H-thymidine for the final 24 hours, read-out: IC₅₀
Procedure: Mixed Lymphoctye Reaction (MLR) II
The MLR test was performed in 96-well microtitre plates with each well containing 3 x 10⁵ cells from each of two responding donors in a final volume of 0.2ml RPMI 1640 medium supplemented with 10% human serum, L-glutamine and penicillin/streptomycin. The compound under test was dissolved at 10mg/ml in ethanol and further diluted in RPMI 1640. The cells were incubated at 37 °C in a humidified atmosphere of 5% carbon dioxide for 96 hours. ³H-thymidine (0.5uCi) was added for the final 24 hours of the incubation to provide a measure of proliferation.
A selection of compounds were tested according to Example B. The concentration of compound required to inhibit the proliferation of lymphocytes by 50% was measured, and the results were as follows: […]

SMILES | IC50 [nM]
C=CCC1C=C(C)CC(C)CC(OC)C2OC(O)(C(=O)C(=O)N3CCCCC3C(=O)OC(C(C)=CC3CCC(OC)C(OC)C3)C(C)C(OC)CC1=O)C(C)CC2OC (stereo not drawn) [Example 1, 17-Allyl-1-hydroxy-12-[2-(3,4-dimethoxycyclohexyl)-1-methylvinyl]-14,23,25-trimethoxy-13,19,21,27-tetramethyl-11,28-dioxa-4-azatricyclo[22.3.1.0^4,9]octacos-18-ene-2,3,10,16-tetraone.] | < 1000
C=CCC1C=C(C)CC(C)CC(OC)C2OC(O)(C(=O)C(=O)N3CCCCC3C(=O)OC(C(C)=CC3CCC(OC)C(OC)C3)C(C)C(O)CC1=O)C(C)CC2OC (stereo not drawn) [Example 2, 17-Allyl-1,14-dihydroxy-12-[2-(3,4-dimethoxycyclohexyl) -1-methylvinyl]-23,25-dimethoxy-13,19,21,27-tetramethyl-11, 28-dioxa-4-azatricyclo[22.3.1.0^4,9]octacos-18-ene-2,3,10, 16-tetraone] | < 1000
C=CCC1C=C(C)CC(C)CC(OC)C2OC(O)(C(C)CC2OC)C(O)C(=O)N2CCCCC2C(=O)OC(C(C)=CC2CCC(O)C(OC)C2)C(C)C(O)CC1=O (stereo not drawn) [Example 5, 17-Allyl-1,2,14-trihydroxy-12-[2-(4-hydroxy-3-methoxycyclohexyl)-1-methylvinyl]-23,25-dimethoxy-13,19,21,27-tetra methyl-11,28-dioxa-4-azatricyclo[22.3.1.0^4,9]octacos-18-ene-3,10,16-trione] | < 1000
C=CCC1C=C(C)CC(C)CC(OC)C2OC(O)(C(C)CC2OC)C(O)C(=O)N2CCCCC2C(=O)OC(C(C)=CC2CCC(O)C(OC)C2)C(C)C(O)CC1O (stereo not drawn) [Example 6, 17-Allyl-1,2,14,16-tetrahydroxy-12-[2-(4-hydroxy-3-methoxycyclohexyl)-1-methylvinyl]-23,25-dimethoxy-13,19,21, 27-tetramethyl-11,28-dioxa-4-azatricyclo[22.3.1.0^4,9] octacos-18-ene-3,10-dione] | < 1000
CCCC1C=C(C)CC(C)CC(OC)C2OC(O)(C(=O)C(=O)N3CCCCC3C(=O)OC(C(C)=CC3CCC(O)C(OC)C3)C(C)CCC1=O)C(C)CC2OC (stereo not drawn) [Example 12, 17-Propyl-1-hydroxy-12-[2-(4-hydroxy-3-methoxycyclohexyl)-1-methylvinyl]-23,25-dimethoxy-13,19,21,27-tetra methyl-11,28-dioxa-4-azatricyclo[22.3.1.0^4,9]octacos-18-ene-2,3,10,16-tetraone] | < 1000
C=CCC1C=C(C)CC(C)CC(OC)C2OC(O)(C(C)CC2OC)C(O)C(=O)N2CCCCC2C(=O)OC(C(C)=CC2CCC(O)C(OC)C2)C(C)CCC1=O (stereo not drawn) [Example 15, 17-Allyl-1,2-dihydroxy-12-[2-(4-hydroxy-3-methoxy-cyclohexyl)-1-methylvinyl]-23,25-dimethoxy-13,19,21,27-tetra methyl-11,28-dioxa-4-azatricyclo-[22.3.1.0^4,9]octacos-18-ene-3,10,16-trione] | < 1000
C=CCC1C=C(C)CC(C)CC(OC)C2OC(O)(C(=O)C(=O)N3CCCCC3C(=O)OC(C(C)=CC3CCC(O)C(OC)C3)C(C)CCC1=O)C(C)CC2OC (stereo not drawn) [Example 17, 17-Allyl-l-hydroxy-12-[2-(4-hydroxy-3-methoxycyclohexyl)-1-methylvinyl]-23,25-dimethoxy-13,19,21,27-tetramethyl-11,28-dioxa-4-azatricyclo[22.3.1.0^4,9]octacos-18-ene-2,3,10,16-tetraone] | < 1000
CCCC1C=C(C)CC(C)CC(OC)C2OC(O)(C(=O)C(=O)N3CCCCC3C(=O)OC(C(C)=CC3CCC(=O)C(OC)C3)C(C)CCC1=O)C(C)CC2OC (stereo not drawn) [Example 18, 17-Propyl-1-hydroxy-12-[2-(3-methoxy-4-oxocyclohexyl)-1-methylvinyl]-23,25-dimethoxy-13,19,21,27-tetramethyl-11,28-dioxa-4-azatricyclo[22.3.1.0^4,9]octacos-18-ene-2,3,10,16-tetraone.] | < 1000
COC1CC(C=C(C)C2OC(=O)C3CCCCN3C(=O)C(=O)C3(O)OC(C(OC)CC(C)CC(C)=Cc4ccn(CCO)c4CC(O)C2C)C(OC)CC3C)CCC1O (stereo not drawn) [Example 22, 1,14-Dihydroxy-12-[2-(4-hydroxy-3-methoxycyclohexyl)-1-methylvinyl]-26,28-dimethoxy-17-(2-hydroxyethyl)-13,22,24,30-tetramethyl-11,31-dioxa-4,17-diazatetracyclo[25.3.1.0.^4,9 .0^16,20]hentriaconta-16(20),18,21-triene-2,3,10-trione.] | < 1000
C=CCC1C=C(C)CC(C)CC(OC)C2OC(O)(C(=O)C(=O)N3CCCCC3C(=O)OC(C(C)=CC3CCC(OCOCCOC)C(OC)C3)C(C)C(O)CC1=O)C(C)CC2OC (stereo not drawn) [Example 27] | < 1000
C=CCC1C=C(C)CC(C)CC(OC)C2OC(O)(C(C)CC2OC)C2(CO2)C(=O)N2CCCCC2C(=O)OC(C(C)=CC2CCC(O)C(OC)C2)C(C)C(O)CC1=O (stereo not drawn) [Example 30, 17-Allyl-1,14-dihydroxy-12-[2-(4-hydroxy-3-methoxycyclohexyl)-1-methylvinyl]-23,25-dimethoxy-13,19,21, 27-tetramethyl-11,28-dioxa-4-aza-spiro[tricyclo [22.3.1.0^4,9]octacos-18-ene-2,2'-oxirane]-3,10,16-trione.] | < 1000
COC1CC(C=C(C)C2OC(=O)C3CCCCN3C(=O)C(=O)C3(O)OC(C(OC)CC(C)CC(C)=CC4=C(CC(O)C2C)OC(C[Se]c2ccccc2)C4)C(OC)CC3C)CCC1O (stereo not drawn) [Example 32, 1,14-Dihydroxy-12-[2-(4-hydroxy-3-methoxycyclohexyl)-1-methylvinyl]-26,28-dimethoxy-18-[(phenylseleno)methyl]-13, 22,24,30-tetramethyl-11,17,31-trioxa-4-azatetracyclo[25.3.1. 0.^4,90.^16,20]hentriaconta-16(20),21-diene-2,3,10-trione.] | < 1000
